Experimental data taken from paper PMC4851326, “Pharmacologic Comparison of Clinical Neutral Endopeptidase Inhibitors in a Rat Model of Acute Secretory Diarrhea” (The Journal of Pharmacology and Experimental Therapeutics, 2016).

Experiments:
NEP = biological target: T1, NEP (Rattus norvegicus, UniProt P07861); assay: NEP enzyme activity in tissues after oral treatment; assay type: in vivo; conditions: 5 hours postdose, single oral dose, rats
T1 construct: NEP enzyme activity was measured in tissue homogenates; from tissue; host or cells: Wistar rat kidney, lung, duodenum, jejunum homogenates
T1 sequence (P07861 1-750): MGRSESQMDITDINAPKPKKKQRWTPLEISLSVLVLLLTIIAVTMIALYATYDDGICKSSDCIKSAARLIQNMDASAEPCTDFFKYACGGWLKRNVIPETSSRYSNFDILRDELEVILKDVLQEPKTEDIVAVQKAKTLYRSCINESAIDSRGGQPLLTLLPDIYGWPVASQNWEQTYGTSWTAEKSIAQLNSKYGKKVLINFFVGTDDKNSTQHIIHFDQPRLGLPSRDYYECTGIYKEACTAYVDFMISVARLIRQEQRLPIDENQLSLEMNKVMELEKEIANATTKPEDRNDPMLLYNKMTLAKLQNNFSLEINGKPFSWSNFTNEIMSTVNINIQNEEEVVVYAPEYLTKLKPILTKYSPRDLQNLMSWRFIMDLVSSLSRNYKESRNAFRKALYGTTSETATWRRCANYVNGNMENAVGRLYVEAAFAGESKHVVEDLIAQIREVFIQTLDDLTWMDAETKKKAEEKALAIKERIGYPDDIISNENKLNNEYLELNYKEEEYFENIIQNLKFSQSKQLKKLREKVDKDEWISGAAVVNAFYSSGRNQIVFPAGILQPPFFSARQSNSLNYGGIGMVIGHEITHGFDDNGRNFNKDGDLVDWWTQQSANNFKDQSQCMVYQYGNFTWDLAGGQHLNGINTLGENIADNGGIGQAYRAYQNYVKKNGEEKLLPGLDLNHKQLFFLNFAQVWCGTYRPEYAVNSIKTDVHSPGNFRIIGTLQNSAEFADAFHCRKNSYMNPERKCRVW
Protocol: Four or five 2-mm Zirconia beads (Biospec, Bartlesville, OK) were added to fresh weighed tissue specimens (50–250 mg). Assay buffer consisting of 50 mM Tris-HCl (pH 7.4), 200 mM NaCl, and 0.05% TritonX-100 was added (4 μl/mg), and the sample was homogenized for 1 minute using a bead beater (Biospec). Stored frozen homogenates were thawed at room temperature and centrifuged 10 minutes at 18,000g, and the protein concentration was determined for each supernatant. […] NEP substrate 2Abz-dArg-Gly-Leu-C2-Dnp (American Peptide, Sunnyvale, CA) was prepared at 1 mM in 20% acetonitrile/water and diluted to 100 μM in assay buffer, and 10 μl was dispensed to homogenate-containing wells. […] Kinetic data were plotted to determine the rate of product formation by linear regression with interpolation against a standard curve, and the rate was normalized to protein concentration.

ACE = biological target: T2, ACE (Homo sapiens, UniProt P12821); assay: Purified peptidase assay, ACE; assay type: biochemical; conditions: recombinant purified human enzyme; for prodrugs the active form was tested
T2 construct: purchased R&D Systems (Minneapolis, MN)
Protocol: (§1) Purified recombinant human enzymes were purchased from R&D Systems (Minneapolis, MN). […] Each substrate was diluted to 100 μM in the assay buffer recommended for each enzyme by the supplier. […] To these, 5 μl of diluted enzyme was added, followed by 10 μl of the quenched peptide substrate. The plates were incubated at 37°C until at least 10% substrate turnover or 5 μM product had formed. Fluorescence was measured using a Tecan Safire II (Excitation 320 nm/Emission 420 nm). Each plate included a standard curve of reaction product and positive (no enzyme) and negative (dimethyl sulfoxide vehicle) controls. Dose-response data were plotted and inhibition values (IC50) determined by linear regression analysis using GraphPad Prism (GraphPad Software, La Jolla, CA).

aminopeptidase N = biological target: T3, aminopeptidase N (Homo sapiens, UniProt P15144); assay: Purified peptidase assay, APN; assay type: biochemical; conditions: recombinant purified human enzyme; for prodrugs the active form was tested
T3 construct: purchased R&D Systems (Minneapolis, MN)
Protocol: as §1

IDE = biological target: T4, IDE (Homo sapiens, UniProt P14735); assay: Purified peptidase assay, IDE; assay type: biochemical; conditions: recombinant purified human enzyme; for prodrugs the active form was tested
T4 construct: purchased R&D Systems (Minneapolis, MN)
T4 sequence (P14735 1-1019): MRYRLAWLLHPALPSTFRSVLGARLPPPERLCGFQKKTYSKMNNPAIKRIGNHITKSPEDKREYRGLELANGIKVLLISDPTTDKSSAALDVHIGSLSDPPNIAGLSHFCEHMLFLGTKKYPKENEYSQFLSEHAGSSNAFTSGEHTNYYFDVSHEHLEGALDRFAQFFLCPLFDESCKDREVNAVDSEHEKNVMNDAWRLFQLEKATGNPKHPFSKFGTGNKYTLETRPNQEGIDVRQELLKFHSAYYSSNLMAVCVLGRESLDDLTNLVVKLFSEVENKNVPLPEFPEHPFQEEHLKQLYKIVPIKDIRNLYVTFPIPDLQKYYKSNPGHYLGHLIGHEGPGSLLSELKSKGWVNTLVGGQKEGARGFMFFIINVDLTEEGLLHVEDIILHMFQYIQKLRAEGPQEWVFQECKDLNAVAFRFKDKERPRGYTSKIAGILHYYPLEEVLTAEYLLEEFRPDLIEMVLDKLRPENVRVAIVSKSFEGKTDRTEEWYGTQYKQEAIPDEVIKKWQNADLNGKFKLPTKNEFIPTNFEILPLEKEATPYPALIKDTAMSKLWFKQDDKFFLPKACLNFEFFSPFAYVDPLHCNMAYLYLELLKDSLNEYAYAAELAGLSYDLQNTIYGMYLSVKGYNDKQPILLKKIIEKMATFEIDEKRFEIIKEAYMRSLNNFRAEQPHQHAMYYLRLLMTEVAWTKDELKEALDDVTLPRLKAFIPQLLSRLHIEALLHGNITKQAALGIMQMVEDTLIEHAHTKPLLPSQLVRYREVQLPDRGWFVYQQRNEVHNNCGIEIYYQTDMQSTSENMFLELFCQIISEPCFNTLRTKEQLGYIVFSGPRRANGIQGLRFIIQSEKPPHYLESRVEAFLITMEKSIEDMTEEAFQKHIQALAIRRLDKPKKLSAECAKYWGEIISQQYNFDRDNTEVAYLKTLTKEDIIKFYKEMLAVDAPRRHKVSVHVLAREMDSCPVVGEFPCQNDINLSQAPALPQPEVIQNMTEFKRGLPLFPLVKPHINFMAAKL
Protocol: as §1

T3 sequence (P15144 whole entry): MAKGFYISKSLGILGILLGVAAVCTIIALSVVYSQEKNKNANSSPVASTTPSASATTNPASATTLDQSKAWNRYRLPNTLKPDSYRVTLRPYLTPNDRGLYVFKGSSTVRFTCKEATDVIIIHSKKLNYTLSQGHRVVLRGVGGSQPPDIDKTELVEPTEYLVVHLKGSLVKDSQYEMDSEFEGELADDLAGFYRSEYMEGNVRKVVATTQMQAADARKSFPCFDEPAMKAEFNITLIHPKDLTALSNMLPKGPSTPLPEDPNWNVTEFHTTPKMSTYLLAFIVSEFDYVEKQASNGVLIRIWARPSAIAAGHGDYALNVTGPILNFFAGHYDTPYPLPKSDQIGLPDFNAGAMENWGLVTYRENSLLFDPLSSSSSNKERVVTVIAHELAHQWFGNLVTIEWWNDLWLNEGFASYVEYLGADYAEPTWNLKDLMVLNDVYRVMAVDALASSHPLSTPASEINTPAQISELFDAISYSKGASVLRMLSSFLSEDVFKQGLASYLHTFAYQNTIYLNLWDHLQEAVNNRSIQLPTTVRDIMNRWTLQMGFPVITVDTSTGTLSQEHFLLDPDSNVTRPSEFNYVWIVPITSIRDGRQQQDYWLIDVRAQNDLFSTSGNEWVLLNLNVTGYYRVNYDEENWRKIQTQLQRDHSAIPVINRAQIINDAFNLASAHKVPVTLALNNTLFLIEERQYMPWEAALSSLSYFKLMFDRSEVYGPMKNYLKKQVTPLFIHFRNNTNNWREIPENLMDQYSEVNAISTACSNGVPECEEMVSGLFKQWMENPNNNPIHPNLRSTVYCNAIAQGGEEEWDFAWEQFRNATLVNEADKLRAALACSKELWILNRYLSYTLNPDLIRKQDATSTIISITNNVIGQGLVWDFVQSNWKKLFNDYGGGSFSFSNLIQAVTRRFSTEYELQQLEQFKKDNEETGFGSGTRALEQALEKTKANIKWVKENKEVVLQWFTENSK
T2 sequence (P12821 30-1306): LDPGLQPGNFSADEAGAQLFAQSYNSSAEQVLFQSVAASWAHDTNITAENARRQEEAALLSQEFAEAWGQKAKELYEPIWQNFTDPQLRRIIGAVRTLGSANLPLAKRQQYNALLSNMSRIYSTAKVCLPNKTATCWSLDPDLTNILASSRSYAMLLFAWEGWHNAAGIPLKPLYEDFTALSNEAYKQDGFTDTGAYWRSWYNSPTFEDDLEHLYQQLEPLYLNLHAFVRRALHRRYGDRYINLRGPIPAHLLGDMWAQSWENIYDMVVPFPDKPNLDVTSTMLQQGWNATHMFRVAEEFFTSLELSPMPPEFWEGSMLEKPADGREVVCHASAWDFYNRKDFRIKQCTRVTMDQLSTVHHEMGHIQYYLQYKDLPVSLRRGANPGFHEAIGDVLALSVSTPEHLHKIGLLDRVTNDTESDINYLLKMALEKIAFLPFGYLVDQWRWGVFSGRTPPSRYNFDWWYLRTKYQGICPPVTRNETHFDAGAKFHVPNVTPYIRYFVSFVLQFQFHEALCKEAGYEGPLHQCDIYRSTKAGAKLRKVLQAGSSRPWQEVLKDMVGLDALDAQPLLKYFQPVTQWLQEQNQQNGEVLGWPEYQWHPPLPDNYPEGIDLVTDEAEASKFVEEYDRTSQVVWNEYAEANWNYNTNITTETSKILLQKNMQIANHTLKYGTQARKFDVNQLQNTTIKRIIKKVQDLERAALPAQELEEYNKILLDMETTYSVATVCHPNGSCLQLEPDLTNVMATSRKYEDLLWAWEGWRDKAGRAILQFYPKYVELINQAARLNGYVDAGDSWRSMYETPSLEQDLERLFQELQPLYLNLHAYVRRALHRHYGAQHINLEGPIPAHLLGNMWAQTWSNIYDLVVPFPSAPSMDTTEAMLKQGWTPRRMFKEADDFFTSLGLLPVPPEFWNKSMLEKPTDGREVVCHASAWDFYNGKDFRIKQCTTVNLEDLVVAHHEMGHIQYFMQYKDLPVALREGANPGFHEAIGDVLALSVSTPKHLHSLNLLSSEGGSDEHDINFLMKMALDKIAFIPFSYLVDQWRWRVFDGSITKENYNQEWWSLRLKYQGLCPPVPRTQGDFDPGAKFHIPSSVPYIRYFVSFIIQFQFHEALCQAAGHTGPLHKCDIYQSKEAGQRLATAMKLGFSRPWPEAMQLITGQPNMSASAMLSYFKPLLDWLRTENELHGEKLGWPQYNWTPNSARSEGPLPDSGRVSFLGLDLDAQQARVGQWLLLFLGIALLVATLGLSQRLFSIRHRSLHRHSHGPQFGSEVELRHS

With `Cc1nc2ccc(CCCNC(=O)C3(C[C@@H](C)C(=O)O)CCCC3)cc2s1` [UK-505,749, (R)-2-methyl-3-(1-((3-(2-methylbenzo[d]thiazol-6-yl)propyl)carbamoyl)cyclopentyl)propanoic acid] the “Inhibition of NEP in the intestinal segments” value (NEP) was greater than 92%, the “Inhibition of NEP in the intestinal segments” value (NEP; listed as UK-505,797) was no less than 97% and the IC50 (ACE) was greater than 100 µM. The IC50 (aminopeptidase N) was greater than 100 µM and the IC50 (IDE) was greater than 100 µM.
